Laboratory results published in patent publication US20170035845A1, “Compositions and Methods for Inhibiting Pro-Inflammatory Cytokine Gene Expression” (The Regents of the University of California, priority 2015, published 2017).

Columns and labels:
[1] = system: THP-1 macrophages; assay: Cytokine secretion ELISA, LPS-stimulated differentiated THP-1 cells; assay type: cell-based, human; details: LPS 100 ng/ml, comparison RTD-1 versus marimastat
Protocol: THP-1 monocytes (ATCC, Manassas, Va.) were cultured in RPMI 1640+10% FBS and penicillin/streptomycin (P/S). THP-1 Dual cells (Invivogen, San Diego, Calif.) which express the NF-κB reporter, secreted embryonic alkaline phosphatase (SEAP), were grown in RPMI 1640+10% HI-FBS and antibiotics. THP-1 cell differentiation was induced by treatment of cells (˜3.3×10^5 cells/ml) with 100 nM PMA and cultured for 2 days. HEK-Blue™ hTLR9 cells (Invivogen) were grown in DMEM medium containing 10% HI-FBS, P/S and normocin. Cells were cultured at 37° C. in 5% CO2. Cytokine assays. PMA-differentiated THP-1 cells (˜8×10^5 cells) cultured in 6-well plates were washed twice with complete medium and grown in fresh medium containing 1% FBS for 24 hours. Cells were washed twice with fresh medium and incubated for 2 hours prior to further manipulation. Cells were stimulated with 100 ng/ml LPS in the presence or absence of 10 μg/ml RTD-1 or vehicle (0.01% acetic acid) for 2 hours. In some experiments, cells were first incubated for 1 hour with 10 μg/ml of marimastat or vehicle (DMSO), after which LPS and/or RTD-1 were added and incubated for 2 hours as above. Peripheral blood CD14+ monocytes (Lonza, Walkersville, Md.) were thawed, rinsed with RPMI 1640 containing 10% HI FBS, P/S and normocin and then resuspended in RPMI 1640 containing 1% HI FBS plus antibiotics as above (10^6 cells/nil) for 2 hours. The cells were then stimulated for 4 hours as described in the legend. Medium was collected, clarified by centrifugation first at 250×g for 8 minutes and then at 5000×g for 5 minutes. TNF-α, IL-1β and IL-8 were quantified by ELISA (Life Technologies, Carlsbad, Calif.).

[2] = system: NF-κB; assay: NF-κB activity assay (SEAP reporter, Quantiblue) in THP-1 Dual cells; assay type: cell-based, human; details: LPS 100 ng/ml
Protocol: One ml aliquots of PMA-differentiated THP-1 Dual cells (3.3×10^5 cells/nil) in 24 well tissue culture plates were starved for 1 day in complete medium with 1% HI FBS as described above. For experiments with S7 peptide, 0.5 ml cultures in 48 well plates were used. Fresh medium containing 1% HI FBS was added to the cells and after 2 hours cells were stimulated with 100 ng/ml LPS or 25 ng/ml Pam3CSK4 in the presence of RTD-1 or 0.01% acetic acid (HOAc, vehicle). In some experiments cells were pre-incubated with marimastat, Ly294002 or vehicle for 1 hour prior to addition of LPS and/or RTD-1 (SEQ ID NO. 1). Following overnight incubation, medium was clarified by centrifugation and SEAP activity was determined using Quantiblue reagent at 37° C. and measurement of absorbance at 625 nm. To test the effect of RTD-1 on TLR9-dependent NF-κB activation, 2×10^5 HEK-Blue™ hTLR9 cells/ml were cultured for 1 day in 24 well plates and stimulated overnight with ODN2006 with or without RTD-1. Medium was harvested and SEAP activity was assayed using Quantiblue™ as above. NF-κB activation was defined as fold stimulation of SEAP activity with respect to control cells.

Row | Compound | release of TNF-α by LPS-stimulated THP-1 cells [1] | secretion of IL-1β by LPS-stimulated THP-1 cells [1] | LPS-stimulated NF-κB activation ([2]; comparison RTD-1 versus marimastat, RTD-1 in the presence or absence of marimastat) | inhibition of NF-κB activity ([2]; equimolar concentrations used in place of RTD-1)
1 | CNC(=O)[C@@H](NC(=O)[C@H](CC(C)C)[C@H](O)C(=O)NO)C(C)(C)C [marimastat, reference compound] | efficiently blocked | did not affect | no effect | 
2 | HNP-1: human neutrophil α-defensin HNP-1 purified from neutrophils [reference compound] |  |  |  | no inhibition
